Experimental data published in the supplement of paper PMC10307832.

Experiments:
Experiment in all cases: relative viability (nuclei count vs DMSO), 5 days (fraction); higher = more cells survive
NCI-H1915 = tested on: NCI-H1915
Summary of the method: (§1)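 Lung cancer cell lines were seeded in 1536-well plates and dosed by pin tool the next day, with either a single drug or a fixed anchor-drug dose combined with five library-drug doses (not always all listed) spaced in √10 steps. Five days later, one step fixed the cells and stained their nuclei (final 0.05% Triton X-100, 1% formaldehyde, 1 ug/ml Hoechst), and nuclei were counted on 4× images. Relative viability is the nuclei count in treated wells divided by the count in vehicle wells, and each value is the median of duplicate plates.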

NCI-H1563 = tested on: NCI-H1563
Summary of the method: as §1

201T = tested on: 201T
Summary of the method: as §1

LOU-NH91 = tested on: LOU-NH91
Summary of the method: as §1

NCI-H838 = tested on: NCI-H838
Summary of the method: as §1

HOP-62 = tested on: HOP-62
Summary of the method: as §1

NCI-H2126 = tested on: NCI-H2126
Summary of the method: as §1

NCI-H1355 = tested on: NCI-H1355
Summary of the method: as §1

NCI-H2347 = tested on: NCI-H2347
Summary of the method: as §1

SW 1573 = tested on: SW 1573
Summary of the method: as §1

NCI-H3122 = tested on: NCI-H3122
Summary of the method: as §1

CAL-12T = tested on: CAL-12T
Summary of the method: as §1

NCI-H1651 = tested on: NCI-H1651
Summary of the method: as §1

NCI-H650 = tested on: NCI-H650
Summary of the method: as §1

NCI-H1944 = tested on: NCI-H1944
Summary of the method: as §1

NCI-H322M = tested on: NCI-H322M
Summary of the method: as §1

HCC-78 = tested on: HCC-78
Summary of the method: as §1

LCLC-97TM1 = tested on: LCLC-97TM1
Summary of the method: as §1

NCI-H441 = tested on: NCI-H441
Summary of the method: as §1

SK-LU-1 = tested on: SK-LU-1
Summary of the method: as §1

BEN = tested on: BEN
Summary of the method: as §1

`CCNC(=O)c1noc(-c2cc(C(C)C)c(O)cc2O)c1-c1ccc(CN2CCOCC2)cc1` [Luminespib] + C[C@@H](Oc1cc(-c2cnn(C3CCNCC3)c2)cnc1N)c1c(Cl)ccc(F)c1Cl [Crizotinib] (partner 1 µM) showed a relative viability (NCI-H1915; first compound 0.002 µM) of 0.952, a relative viability (NCI-H1915; first compound 0.006325 µM) of 0.897 and a relative viability (NCI-H1915; first compound 0.02 µM) of 0.958. The relative viability (NCI-H1915; first compound 0.06325 µM) was 0.904, the relative viability (NCI-H1915; first compound 0.2 µM) was 0.851 and the relative viability (NCI-H1563; first compound 0.002 µM) was 0.937. It also gave a relative viability (NCI-H1563; first compound 0.006325 µM) of 0.834, a relative viability (NCI-H1563; first compound 0.02 µM) of 0.811 and a relative viability (NCI-H1563; first compound 0.06325 µM) of 0.473. The relative viability (NCI-H1563; first compound 0.2 µM) was 0.536, the relative viability (201T; first compound 0.002 µM) was 0.995 and the relative viability (201T; first compound 0.006325 µM) was 0.981. The relative viability (201T; first compound 0.02 µM) was 0.968, the relative viability (201T; first compound 0.06325 µM) was 1.03 and the relative viability (201T; first compound 0.2 µM) was 1.03. The relative viability (LOU-NH91; first compound 0.002 µM) was 0.765, the relative viability (LOU-NH91; first compound 0.006325 µM) was 0.726 and the relative viability (LOU-NH91; first compound 0.02 µM) was 0.55. It also gave a relative viability (LOU-NH91; first compound 0.06325 µM) of 0.328, a relative viability (LOU-NH91; first compound 0.2 µM) of 0.351 and a relative viability (NCI-H838; first compound 0.002 µM) of 0.947. It also gave a relative viability (NCI-H838; first compound 0.006325 µM) of 0.78, a relative viability (NCI-H838; first compound 0.02 µM) of 0.755 and a relative viability (NCI-H838; first compound 0.06325 µM) of 0.285. It also gave a relative viability (NCI-H838; first compound 0.2 µM) of 0.101, a relative viability (HOP-62; first compound 0.002 µM) of 0.931 and a relative viability (HOP-62; first compound 0.006325 µM) of 0.962. For the same compound, the relative viability (HOP-62; first compound 0.02 µM) was 0.79, the relative viability (HOP-62; first compound 0.06325 µM) was 0.993 and the relative viability (HOP-62; first compound 0.2 µM) was 0.875. The relative viability (NCI-H2126; first compound 0.002 µM) was 1.08, the relative viability (NCI-H2126; first compound 0.006325 µM) was 0.97 and the relative viability (NCI-H2126; first compound 0.02 µM) was 0.84. The relative viability (NCI-H2126; first compound 0.06325 µM) was 0.993, the relative viability (NCI-H2126; first compound 0.2 µM) was 0.951 and the relative viability (NCI-H1355; first compound 0.002 µM) was 1.1. It also gave a relative viability (NCI-H1355; first compound 0.006325 µM) of 1.05, a relative viability (NCI-H1355; first compound 0.02 µM) of 0.62 and a relative viability (NCI-H1355; first compound 0.06325 µM) of 1.08. It also gave a relative viability (NCI-H1355; first compound 0.2 µM) of 1.08, a relative viability (NCI-H2347; first compound 0.002 µM) of 0.701 and a relative viability (NCI-H2347; first compound 0.02 µM) of 0.625. The relative viability (NCI-H2347; first compound 0.06325 µM) was 0.315, the relative viability (NCI-H2347; first compound 0.2 µM) was 0.311 and the relative viability (SW 1573; first compound 0.002 µM) was 0.833. It also gave a relative viability (SW 1573; first compound 0.006325 µM) of 0.853, a relative viability (SW 1573; first compound 0.02 µM) of 0.757 and a relative viability (SW 1573; first compound 0.06325 µM) of 0.191. For the same compound, the relative viability (SW 1573; first compound 0.2 µM) was 0.0946, the relative viability (NCI-H3122; first compound 0.002 µM) was 0.278 and the relative viability (NCI-H3122; first compound 0.006325 µM) was 0.267. The relative viability (NCI-H3122; first compound 0.02 µM) was 0.222, the relative viability (NCI-H3122; first compound 0.06325 µM) was 0.181 and the relative viability (NCI-H3122; first compound 0.2 µM) was 0.165. For the same compound, the relative viability (CAL-12T; first compound 0.002 µM) was 0.7, the relative viability (CAL-12T; first compound 0.006325 µM) was 0.635 and the relative viability (CAL-12T; first compound 0.02 µM) was 0.636. For the same compound, the relative viability (CAL-12T; first compound 0.06325 µM) was 0.06, the relative viability (CAL-12T; first compound 0.2 µM) was 0.0967 and the relative viability (NCI-H1651; first compound 0.002 µM) was 0.85. It also gave a relative viability (NCI-H1651; first compound 0.006325 µM) of 0.901, a relative viability (NCI-H1651; first compound 0.02 µM) of 0.787 and a relative viability (NCI-H1651; first compound 0.06325 µM) of 0.813. The relative viability (NCI-H1651; first compound 0.2 µM) was 0.63, the relative viability (NCI-H650; first compound 0.002 µM) was 0.887 and the relative viability (NCI-H650; first compound 0.006325 µM) was 0.745. For the same compound, the relative viability (NCI-H650; first compound 0.02 µM) was 0.487, the relative viability (NCI-H650; first compound 0.06325 µM) was 0.0913 and the relative viability (NCI-H650; first compound 0.2 µM) was 0.102. The relative viability (NCI-H1944; first compound 0.002 µM) was 1.08, the relative viability (NCI-H1944; first compound 0.006325 µM) was 1.04 and the relative viability (NCI-H1944; first compound 0.02 µM) was 0.775. For the same compound, the relative viability (NCI-H1944; first compound 0.06325 µM) was 0.955, the relative viability (NCI-H1944; first compound 0.2 µM) was 0.97 and the relative viability (NCI-H322M; first compound 0.002 µM) was 0.925. It also gave a relative viability (NCI-H322M; first compound 0.006325 µM) of 0.924, a relative viability (NCI-H322M; first compound 0.02 µM) of 0.718 and a relative viability (NCI-H322M; first compound 0.06325 µM) of 0.898. For the same compound, the relative viability (NCI-H322M; first compound 0.2 µM) was 0.808, the relative viability (HCC-78; first compound 0.002 µM) was 0.302 and the relative viability (HCC-78; first compound 0.06325 µM) was 0.337. For the same compound, the relative viability (HCC-78; first compound 0.2 µM) was 0.232, the relative viability (LCLC-97TM1; first compound 0.002 µM) was 0.417 and the relative viability (LCLC-97TM1; first compound 0.006325 µM) was 0.461. For the same compound, the relative viability (LCLC-97TM1; first compound 0.02 µM) was 0.157, the relative viability (LCLC-97TM1; first compound 0.06325 µM) was 0.221 and the relative viability (LCLC-97TM1; first compound 0.2 µM) was 0.22. It also gave a relative viability (NCI-H441; first compound 0.002 µM) of 0.884, a relative viability (NCI-H441; first compound 0.006325 µM) of 0.719 and a relative viability (NCI-H441; first compound 0.02 µM) of 0.904. For the same compound, the relative viability (NCI-H441; first compound 0.06325 µM) was 0.119, the relative viability (NCI-H441; first compound 0.2 µM) was 0.109 and the relative viability (SK-LU-1; first compound 0.002 µM) was 0.992. It also gave a relative viability (SK-LU-1; first compound 0.006325 µM) of 0.708, a relative viability (SK-LU-1; first compound 0.02 µM) of 0.574 and a relative viability (SK-LU-1; first compound 0.06325 µM) of 0.176. The relative viability (SK-LU-1; first compound 0.2 µM) was 0.155, the relative viability (BEN; first compound 0.002 µM) was 0.792 and the relative viability (BEN; first compound 0.006325 µM) was 0.834. It also gave a relative viability (BEN; first compound 0.02 µM) of 0.416, a relative viability (BEN; first compound 0.06325 µM) of 0.341 and a relative viability (BEN; first compound 0.2 µM) of 0.203.
